A short description of data set [1]: Determination of water solubility. It counts as physicochemical. As for the experimental part: A total of 30 mg of sample (disodium disuccinate astaxanthin derivative, as the all-trans mixture of stereoisomers 3S,3′S, meso, and 3R,3′R in a 1:2:1 ratio) was added to 2 mL of sterile-filtered ([…] Millipore®) deionized (DI) water in a 15 mL glass centrifuge tube. The tube was wrapped in aluminum foil and the mixture was shaken for 2 hours, then centrifuged at 3500 rpm for 10 minutes. The aqueous solution was filtered through a 0.45 micron PVDF disposable filter device. A 1 mL volume of filtrate was then diluted appropriately with DI water, and the concentration of the solution was measured at 480 nm using a four point calibration curve prepared from fresh sample.

The subject of data set [2] is connexin 43 protein expression. The data set is described as follows: Induction of connexin 43 protein expression (Western blot, 96 hours). The format is cell-based, mouse. Conditions: 96 hours. Here is the method:
In brief, mouse embryonic fibroblast CH3/10T^1/2 cells were treated with the following formulations in a 4 mL cell culture system with media containing 2% calf serum: • 1. TTNPB [p-(E)-2-(5,6,7,8-tetrahydro-5,5,8,8-tetramethyl-2-napthyl) propenyl benzoic acid] 10^−8 M in acetone [positive control for connexin 43 upregulation (4 μL in 4 mL] • 2. Disodium salt disuccinate astaxanthin derivative XVI/H2O at 10^−5 M (40 μl in 4 mL) • 3. Disodium salt disuccinate astaxanthin derivative XVI/H2O at 10^−6 M (4 μl in 4 mL) • 4. Disodium salt disuccinate astaxanthin derivative XVI/H2O at 10^−7 M (1:10 dilution and 4 μl in 4 mL) • 5. Disodium salt disuccinate astaxanthin derivative XVI H2O/ethanol [EtOH] formulation at 10^-5 M (40 μl in 4 mL) • 6. Disodium salt disuccinate astaxanthin derivative XVI H2O/EtOH formulation at 10^−6 M (4 μl in 4 mL) • 7. Sterile H2O control (40 μl in 4 mL) • 8. Sterile H2O/EtOH control (20 μL EtOH, 20 μL H2O in 4 mL) • 9. Media control (4 mL)
Cells were harvested after 96 hours incubation with test compounds and control solutions. All media solutions were identical in color, however after treatment with the disodium salt disuccinate astaxanthin derivative XVI at both 10^−5 dilutions, the color subjectively changed to an orange-red color. Cells treated with TTNPB appeared striated with light microscopy, evidence of differentiation to myocytes, an expected result in this cell culture system. After harvest and pelleting of cells, tubes containing both 10^−5 disodium salt disuccinate astaxanthin derivative XVI solutions were bright red; both 10^−6 dilution tubes were a pink color. As documented previously for other colored carotenoids, this was subjective evidence for cellular uptake of the test compounds.
Cells were then lysed, and 50 μg of each protein was electrophoresed on a 10% polyacrylamide gel. The gel was then transferred to a nitrocellulose filter. Total protein was assayed with Coomassie blue staining (FIG. 29; lanes 6, 7, and 9 were smeared secondary to gel transfer, and were not included in the quantitative comparison [FIG. 31)]. […]
In general terms: In western blotting, separated proteins are transferred to a membrane and probed.

Data set [3] relates to mouse embryonic fibroblast C3H/10T 1/2 cells. Nature of the data set: Gap junctional communication assay (Lucifer Yellow dye transfer). The format is cell-based. To be noted: 1×10^-5 M in 1:2 EtOH/H2O, 4 days; for extent of junctional communication: vs solvent controls. As for the experimental part:
A series of experiments were performed to assess the ability of the disodium salt disuccinate astaxanthin derivatives XVI to induce gap junctional communication (GJC) in an immortalized line of murine fibroblasts. Studies were conducted: • (1) at the functional level to measure cell/cell communication by increased dye transfer between confluent cells in monolayer culture; • (2) at the molecular level as measured by the ability of these compounds to induce expression of connexin43 (Cx43) protein. Cx43 is the structural unit of the intercellular channels in these fibroblasts that allows GJC; • (3) at the cellular level as shown by the ability of the disodium salt disuccinate astaxanthin derivatives XVI to increase the number and size of Cx43 immunoreactive plaques in regions of the plasma membrane in direct contact with adjacent cells. (1) Communication Assays. Experiments were performed to assess the ability of the disodium salt disuccinate astaxanthin derivative XVI [as a statistical mixture of the all-trans (all-E) stereoisomers, 3S,3′S, meso, and 3R,3′R in 1:2:1 ratio] to enhance gap junctional intercellular communication (GJC) between mouse embryonic fibroblast C3H/10T 1/2 cells. This ability has been previously highly correlated with the ability of carotenoids to inhibit carcinogen-induced neoplastic transformation (Zhang, 1992). Moreover, Cx43-mediated junctional communication between cardiac myocytes is responsible for transfer of signals that maintain synchronous contractions and prevent cardiac arrhythmias (Peters, 1995). Junctional permeability was assayed by microinjection of the fluorescent dye Lucifer Yellow CH (Sigma, St. Louis, Mo.) into individual confluent cells essentially as described previously (Zhang, 1994). […] Successful injection of Lucifer Yellow was confirmed by brief illumination with UV light, which causes yellow fluorescence of Lucifer Yellow. […] The number of fluorescent cells adjacent to the injected cell was later determined by digital image analysis using an unbiased density threshold method and the SigmaScan software program (Jandel Scientific). […]

Where a name gives a salt, the structure may show the parent alone.

As usually defined, the solubility is the dissolved amount per volume that the medium holds. A higher solubility goes with a readily soluble substance. In the case of `CC1=C(/C=C/C(C)=C/C=C/C(C)=C/C=C/C=C(C)/C=C/C=C(C)/C=C/C2=C(C)C(=O)C(OC(=O)CCC(=O)O)CC2(C)C)C(C)(C)CC(OC(=O)CCC(=O)O)C1=O` (racemic) [XVI, Disodium Salt of the Disuccinic Acid Ester of Astaxanthin], the solubility at 2 h in data set [1] (deionized water, water, thermodynamic from solid, pure aqueous formulation) stood at 8.64 mg/mL. Also, the “increase in solubility in the dosing vehicle” value in data set [1] (emulsion vs pure aqueous formulation) was found to be 6 fold. This compound displayed a solubility in data set [1] (olive oil/water/soybean lecithin emulsion, aqueous with cosolvent or surfactant or cyclodextrin, olive oil/water/soybean lecithin emulsion for oral gavage) of roughly 50 mg/mL. For the same compound, in data set [1] (pure aqueous formulation), the water solubility result is given as “approximately 8.64 mg/mL”. The “induction of connexin 43 protein expression” value in data set [2] (water 10^-5 to 10^-7 M and EtOH/H2O formulations, vs water and ethanol/water controls) is on record as “induced connexin 43 protein expression”. Also, the “connexin 43 induction level compared with TTNPB positive control” value in data set [2] (in water at concentrations greater than 10^-7 and in ethanol/water at 10^-5) is recorded as “higher inductions levels than the positive TTNPB control”. Further, in data set [3] (15 of 22 cells, control 27%), the “microinjected treated cells functionally coupled by gap junctions” value is 56%. The “extent of junctional communication” value in data set [3] is “effectively increased the extent of junctional communication”; in data set [3] (listed as disodium salt disuccinate astaxanthin derivative), “induces functional gap junctional communication”.

These data come from patent US7345091B2, “Carotenoid ether analogs or derivatives for the inhibition and amelioration of disease” (Cardax Pharmaceuticals, Inc., priority 2002, dated 2008).
